Measured values reported in patent publication US20250340591A1, “COMPOSITION FOR PREVENTING OR TREATING INFLAMMATORY BOWEL DISEASE CONTAINING NOVEL COMPOUND” (ANYGEN CO., LTD., priority 2021, published 2025).
Read-outs that look alike come from different tables or passages of the source. Square brackets hold non-standard residues; d marks the D form. Peptide text beside a SMILES is read from it. * marks the point of attachment. Tyr(3,5-(NO2)2) = N[C@@H](Cc1cc([N+](=O)[O-])c(O)c([N+](=O)[O-])c1)C(=O)O; His(Trt) = N[C@@H](Cc1cn(C(c2ccccc2)(c2ccccc2)c2ccccc2)cn1)C(=O)O; His(τ-CHPh2) = N[C@@H](Cc1cn(C(c2ccccc2)c2ccccc2)cn1)C(=O)O; Tyr(3-NO2) = N[C@@H](Cc1ccc(O)c([N+](=O)[O-])c1)C(=O)O; Biotin = O=C1N[C@H]2[C@H](CS[C@H]2CCCCC(=O)*)N1; Tyr(3-Cl) = N[C@@H](Cc1ccc(O)c(Cl)c1)C(=O)O; Tyr(3-NH2) = Nc1cc(C[C@H](N)C(=O)O)ccc1O; dPhe(4-Me) = Cc1ccc(C[C@@H](N)C(=O)O)cc1; Phe(4-Me) = Cc1ccc(C[C@H](N)C(=O)O)cc1; d2Nal = N[C@H](Cc1ccc2ccccc2c1)C(=O)O; d3Pal = N[C@H](Cc1cccnc1)C(=O)O; Octanoyl = CCCCCCCC(=O)*; Orn = NCCC[C@H](N)C(=O)O

Biological target: T1, GPR39 (Homo sapiens, UniProt O43194)
T1 sequence (O43194 1-453): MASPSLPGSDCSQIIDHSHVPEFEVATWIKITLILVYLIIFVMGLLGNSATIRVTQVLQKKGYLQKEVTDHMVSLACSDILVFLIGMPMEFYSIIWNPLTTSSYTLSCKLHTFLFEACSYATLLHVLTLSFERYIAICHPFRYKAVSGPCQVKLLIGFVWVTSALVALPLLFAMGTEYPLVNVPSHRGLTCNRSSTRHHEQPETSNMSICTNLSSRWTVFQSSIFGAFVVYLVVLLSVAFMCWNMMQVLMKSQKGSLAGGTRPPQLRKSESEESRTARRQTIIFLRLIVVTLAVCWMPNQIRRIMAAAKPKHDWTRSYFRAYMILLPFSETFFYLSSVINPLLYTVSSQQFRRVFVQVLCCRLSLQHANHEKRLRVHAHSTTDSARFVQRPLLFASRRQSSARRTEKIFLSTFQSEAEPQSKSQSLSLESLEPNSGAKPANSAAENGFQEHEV
Experiment: luciferase assay system (SRE luciferase reporter gene, CV-1 cells expressing GPR39)
Assay type: cell-based
Design: expressed in transfected cells; host or cells: CV-1 fibroblast cell line (Korea Cell Line Bank), adenoviral transduction at 50 MOI
Settings: for activity level for GPR39 (in words): comment on Table 3

Compound	ECmax (−fold induction over basal) [fold induction over basal]	activity level for GPR39 (in words)	ECmax (−fold induction over basal) (CV-1 cells, GPR39 and SRE luciferase adenovirus, 6 hours treatment) [fold induction over basal]
CCCCCCCC(=O)NCCCC[C@H](NC(=O)[C@@H](N)Cc1cn(-c2ccccc2)c(-c2ccccc2)n1)C(=O)N[C@H](Cc1ccc(C)cc1)C(=O)N[C@@H](Cc1ccc(O)cc1)C(=O)O [HKFY-59, ((R)-2-((S)-2-((S)-2-amino-3-(1,2-diphenyl-1H-imidazol-4-yl)propanamido)-6-octanamidohexanamido)-3-(p-tolyl)propanoyl)-L-tyrosine]	6.76 ± 2.2	–	–
CCCCCCCC(=O)NCCCC[C@H](NC(=O)[C@@H](N)Cc1c[nH]c(-c2ccc(C(C)(C)C)cc2)n1)C(=O)N[C@H](Cc1ccc(C)cc1)C(=O)N[C@@H](Cc1ccc(O)cc1)C(=O)O [HKFY-60, ((R)-2-((S)-2-((S)-2-amino-3-(2-(4-(tert-butyl)phenyl)-1H-imidazol-4-yl)propanamido)-6-octanamidohexanamido)-3-(p-tolyl)propanoyl)-L-tyrosine]	28.2 ± 2.5	–	–
CCCCCCCC(=O)NCCCC[C@H](NC(=O)[C@@H](N)Cc1cn(-c2ccc(C(C)(C)C)cc2)cn1)C(=O)N[C@H](Cc1ccc(C)cc1)C(=O)N[C@@H](Cc1ccc(O)cc1)C(=O)O [HKFY-61, ((R)-2-((S)-2-((S)-2-amino-3-(1-(4-(tert-butyl)phenyl)-1H-imidazol-4-yl)propanamido)-6-octanamidohexanamido)-3-(p-tolyl)propanoyl)-L-tyrosine]	9.88 ± 1.8	–	–
CCCCCCCC(=O)NCCCC[C@H](NC(=O)[C@H](N)Cc1cn(C(c2ccccc2)c2ccccc2)cn1)C(=O)N[C@H](Cc1ccc(C)cc1)C(=O)N[C@@H](Cc1ccc(O)cc1)C(=O)O [HKFY-62, ((R)-2-((S)-2-((R)-2-amino-3-(1-benzhydryl-1H-imidazol-4-yl)propanamido)-6-octanamidohexanamido)-3-(p-tolyl)propanoyl)-L-tyrosine]	28.1 ± 2.1	–	–
CCCCCCCC(=O)NCCCC[C@H](NC(=O)[C@@H](N)Cc1c[nH]c(-c2cccs2)n1)C(=O)N[C@H](Cc1ccc(C)cc1)C(=O)N[C@@H](Cc1ccc(O)cc1)C(=O)O [HKFY-63, ((R)-2-((S)-2-((S)-2-amino-3-(2-(thiophen-2-yl)-1H-imidazol-4-yl)propanamido)-6-octanamidohexanamido)-3-(p-tolyl)propanoyl)-L-tyrosine]	13.5 ± 1.8	higher activity level than other HKFY derivatives	–
CCCCCCCC(=O)NCCCC[C@H](NC(=O)[C@@H](N)Cc1cn(C(c2ccccc2)c2ccc(OC)cc2)cn1)C(=O)N[C@H](Cc1ccc(C)cc1)C(=O)N[C@@H](Cc1ccc(O)cc1)C(=O)O (stereo partly drawn) [HKFY-64, ((2R)-2-((2S)-2-((2S)-2-amino-3-(1-((4-methoxyphenyl)(phenyl)methyl)-1H-imidazol-4-yl)propanamido)-6-octanamidohexanamido)-3-(p-tolyl)propanoyl)-L-tyrosine]	16 ± 1.5	higher activity level than other HKFY derivatives	–
CCCCCCCC(=O)NCCCC[C@H](NC(=O)[C@@H](N)Cc1cn(C(c2ccccc2)c2ccc(O)cc2)cn1)C(=O)N[C@H](Cc1ccc(C)cc1)C(=O)N[C@@H](Cc1ccc(O)cc1)C(=O)O (stereo partly drawn) [HKFY-65, ((2R)-2-((2S)-2-((2S)-2-amino-3-(1-((4-hydroxyphenyl)(phenyl)methyl)-1H-imidazol-4-yl)propanamido)-6-octanamidohexanamido)-3-(p-tolyl)propanoyl)-L-tyrosine]	18.3 ± 2.2	higher activity level than other HKFY derivatives	–
CCCCCCCC(=O)NCCCC[C@H](NC(=O)[C@@H](N)Cc1cn(C(c2ccccc2)c2ccccc2)cn1)C(=O)N[C@H](Cc1ccc(C)cc1)C(=O)N[C@@H](Cc1ccc(O)cc1)C(N)=O [HKFY-66, N-((S)-5-((S)-2-amino-3-(1-benzhydryl-1H-imidazol-4-yl)propanamido)-6-(((R)-1-(((S)-1-amino-3-(4-hydroxyphenyl)-1-oxopropan-2-yl)amino)-1-oxo-3-(p-tolyl)propan-2-yl)amino)-6-oxohexyl)octanamide] (H-[His(τ-CHPh2)]K(Octanoyl)[dPhe(4-Me)]Y-NH2)	20.2 ± 3.5	–	–
CCCCCCCC(=O)NCCCC[C@H](NC(=O)[C@@H](N)Cc1cn(C(c2ccccc2)c2ccccc2)cn1)C(=O)N[C@H](Cc1ccc(C)cc1)C(=O)N[C@@H](Cc1ccc(O)c(Cl)c1)C(=O)O [HKFY-67, (S)-2-((R)-2-((S)-2-((S)-2-amino-3-(1-benzhydryl-1H-imidazol-4-yl)propanamido)-6-octanamidohexanamido)-3-(p-tolyl)propanamido)-3-(3-chloro-4-hydroxyphenyl)propanoic acid] (H-[His(τ-CHPh2)]K(Octanoyl)[dPhe(4-Me)][Tyr(3-Cl)]-OH)	10.2 ± 1.51	–	–
CCCCCCCC(=O)NCCCC[C@H](NC(=O)[C@@H](N)Cc1cn(C(c2ccccc2)c2ccccc2)cn1)C(=O)N[C@H](Cc1ccc(C)cc1)C(=O)N[C@@H](Cc1ccc(O)c([N+](=O)[O-])c1)C(=O)O [HKFY-68, (S)-2-((R)-2-((S)-2-((S)-2-amino-3-(1-benzhydryl-1H-imidazol-4-yl)propanamido)-6-octanamidohexanamido)-3-(p-tolyl)propanamido)-3-(4-hydroxy-3-nitrophenyl)propanoic acid] (H-[His(τ-CHPh2)]K(Octanoyl)[dPhe(4-Me)][Tyr(3-NO2)]-OH)	10.8 ± 1.41	–	–
CCCCCCCC(=O)NCCCC[C@H](NC(=O)[C@@H](N)Cc1cn(C(c2ccccc2)c2ccccc2)cn1)C(=O)N[C@H](Cc1ccc(C)cc1)C(=O)N[C@@H](Cc1cc([N+](=O)[O-])c(O)c([N+](=O)[O-])c1)C(=O)O [HKFY-69, (S)-2-((R)-2-((S)-2-((S)-2-amino-3-(1-benzhydryl-1H-imidazol-4-yl)propanamido)-6-octanamidohexanamido)-3-(p-tolyl)propanamido)-3-(4-hydroxy-3,5-dinitrophenyl)propanoic acid] (H-[His(τ-CHPh2)]K(Octanoyl)[dPhe(4-Me)][Tyr(3,5-(NO2)2)]-OH)	–	–	12.2 ± 2.5
CCCCCCCC(=O)NCCCC[C@H](NC(=O)[C@@H](N)Cc1cn(C(c2ccccc2)c2ccccc2)cn1)C(=O)N[C@H](Cc1ccc(C)cc1)C(=O)N[C@@H](Cc1ccc(O)c(N)c1)C(=O)O [HKFY-70, (S)-2-((R)-2-((S)-2-((S)-2-amino-3-(1-benzhydryl-1H-imidazol-4-yl)propanamido)-6-octanamidohexanamido)-3-(p-tolyl)propanamido)-3-(3-amino-4-hydroxyphenyl)propanoic acid] (H-[His(τ-CHPh2)]K(Octanoyl)[dPhe(4-Me)][Tyr(3-NH2)]-OH)	10.1 ± 1.6	–	–
CCCCCCCC(=O)NCCC[C@H](NC(=O)[C@@H](N)Cc1cn(C(c2ccccc2)c2ccccc2)cn1)C(=O)N[C@H](Cc1ccc(C)cc1)C(=O)N[C@@H](Cc1ccc(O)cc1)C(=O)O [HKFY-71, ((R)-2-((S)-2-((S)-2-amino-3-(1-benzhydryl-1H-imidazol-4-yl)propanamido)-5-octanamidopentanamido)-3-(p-tolyl)propanoyl)-L-tyrosine] (H-[His(τ-CHPh2)][Orn](Octanoyl)[dPhe(4-Me)]Y-OH)	16.4 ± 2.51	–	–
CCCCCCCC(=O)NCCCC[C@H](NC(=O)[C@H](Cc1cn(C(c2ccccc2)c2ccccc2)cn1)NC(=O)CCCC[C@@H]1SC[C@@H]2NC(=O)N[C@@H]21)C(=O)N[C@@H](Cc1ccc(C)cc1)C(=O)N[C@@H](Cc1ccc(O)cc1)C(=O)O [HKFY-72, ((S)-2-((S)-2-((S)-3-(1-benzhydryl-1H-imidazol-4-yl)-2-(5-((3aS,4S,6aR)-2-oxohexahydro-1H-thieno[3,4-d]imidazol-4-yl)pentanamido)propanamido)-6-octanamidohexanamido)-3-(p-tolyl)propanoyl)-L-tyrosine] (Biotin-[His(τ-CHPh2)]K(Octanoyl)[Phe(4-Me)]Y-OH)	10.4 ± 1.12	–	–
CCCCCCCC(=O)NCCCC[C@H](NC(=O)[C@@H](N)Cc1cn(C(c2ccccc2)(c2ccccc2)c2ccccc2)cn1)C(=O)N[C@H](Cc1cccnc1)C(=O)N[C@@H](Cc1ccc(O)cc1)C(=O)O [HKFY-73, ((R)-2-((S)-2-((S)-2-amino-3-(1-trityl-1H-imidazol-4-yl)propanamido)-6-octanamidohexanamido)-3-(pyridin-3-yl)propanoyl)-L-tyrosine] (H-[His(Trt)]K(Octanoyl)[d3Pal]Y-OH)	11.6 ± 2.3	–	–
CCCCCCCC(=O)NCCCC[C@H](NC(=O)[C@@H](N)Cc1cn(C(c2ccccc2)(c2ccccc2)c2ccccc2)cn1)C(=O)N[C@H](Cc1ccc2ccccc2c1)C(=O)N[C@@H](Cc1ccc(O)cc1)C(=O)O [HKFY-74, ((R)-2-((S)-2-((S)-2-amino-3-(1-trityl-1H-imidazol-4-yl)propanamido)-6-octanamidohexanamido)-3-(naphthalen-2-yl)propanoyl)-L-tyrosine] (H-[His(Trt)]K(Octanoyl)[d2Nal]Y-OH)	18.8 ± 3.2	–	–
